Entries after “also recorded” stand apart in the source; their conditions may differ.
Experiments:
[1] = system: OVA-sensitized/OVA-challenged mice; assay: Lung histopathology (H&E, PAS, Masson) after R-, S-, rac-terbutaline; assay type: in vivo; conditions: for PAS stain of lung tissues: inflammatory and histopathological changes, collagen deposition: Example 3, vs model; for wall thickness of vessels / inflammatory remodeling processes: repeated inhalation, OVA mice; for PAS and Masson staining: subepithelial matrix glycoproteins, goblet cell hyperplasia, collagen deposition: vs OVA group; for smooth muscle hypertrophy, thickness of bronchial and vascular smooth muscle layer: vs OVA-treated mice
Protocol: (§1) OVA sensitized/challenged asthma model Mice were sensitized and challenged with ovalbumin (OVA) or normal saline. Briefly, mice were sensitized by intraperitoneal (i.p.) injection of 0.2 mL of 2% aluminum hydroxide (ALUM) gel containing 10 μg of OVA antigen on days 0 and 14. On days 21, 22 and 23, the mice were challenged with 1% OVA in saline (0.01 g/mL) for 20 min via. a nebulizer (PART Turbo boy). On day 26, a 20 min nebulized OVA challenge with 5% OVA in saline (0.05 g/mL) was conducted. The control group received 0.2 mL of saline with 2% ALUM administered intraperitoneally on days 0 and 14 before receiving 20 min nebulized normal saline without OVA on days 21, 22, 23 and 26.
Left lung tissue was obtained for histopathology and fixed in 10% formalin for 24 h, followed by paraffin-embedded and then were sectioned at 4 μm for routine staining with hematoxylin and eosin (H&E, Solarbio, Beijing, China), or with periodic acid-Schiff (PAS, Solarbio, Beijing, China), or submitted to Masson's trichrome staining (Baso, Zhuhai, China). Images of the stained lung sections were obtained by an Axisplus image-capturing system (Zeiss, Germany) and then a minimum of 3 bronchi (luminal diameter, 150-500 μm) were analyzed per mice for various parameters using an image analyzing computer system (IPP) by pathologists blinded to grouping. Histological score, airway smooth muscle thickness, PAS score (goblet cells hyperplasia), and collagen deposition were evaluated by a semi-quantitative scoring method.

p38 MAPK = assay: Western blot of lung tissue: p38 MAPK phosphorylation; assay type: in vivo, mice; conditions: vs OVA group
Protocol: as §1
(§2) Total protein from lung tissue was extracted according to the guidelines of manufacturer (Beyotime, China) and the concentrations were determined by BCA assay (Pierce). Primary antibodies against p38 MAPK (CST #8690), p-p38 MAPK (Thr180/Tyr182, CST #4511), NF-κB p65 (GeneTex #GTX102090), p-NF-κB p65 (S536, CST #3033) and GAPDH (Affinity #AF7021) as a standard were purchased and used.

NF-κB p65 = assay: Western blot of lung tissue: NF-κB p65 phosphorylation; assay type: in vivo, mice
Protocol: as §1, §2

[2] = system: Th2 cytokines (IL-4, IL-5, IL-13); assay: Analysis of cytokine levels in BAL fluid (ELISA); assay type: in vivo, mice; conditions: for cytokines released (FIG. 3): pretreatment for 7 consecutive days; for IL-4 release in BALF / IL-13 release in BALF / IL-5 in BALF: vs OVA group
Protocol: as §1
BAL fluid samples were analyzed for the concentrations of mouse IL-4 and IL-5 using commercial ELISA kits according to the manufacturers instructions (R&D Systems, Minneapolis, Minn.). IL-13 was assayed in BAL fluid with a mouse IL-13 immunoassay kit (Abeam, Cambridge, UK) following the manufacturer's protocol.

[3] = system: OVA-sensitized/OVA-challenged mice; assay: Whole blood analysis and eosinophils counts in BAL fluid; assay type: in vivo; conditions: for per cent of eosinophil counts in blood and BALF: OVA asthma mice after repeated inhalation
Protocol: as §1
After Methacholine challenge, mice were anesthetized, blood was collected for hematology analysis. Part of the collected blood was transferred to a heparinized Eppendorf tube, gently mixed and centrifuged under 845×g at 4° C. for 10 min to isolate plasma specimen for further analysis. Broncho alveolar lavage (BAL) was performed on the right lung using 0.3 mL of phosphate buffered saline (PBS) for four times. The saline was instilled into the lungs and allowed to equilibrate for 30 s before recovery, after centrifugation supernatants were stored at −80° C. for further cytokines analysis while cell pellet was suspended in 0.5 ml PBS and the eosinophils counts were performed using Wright's stain. Then all the organs (liver, right lung lobe, spleen, kidneys, heart, brain) were excised surgically and washed totally with ice-cold PBS to clear the blood and then blotted dry with filter paper. These tissue specimens were then accurately weighted and stored at −80° C. for detecting the drug distribution by LC-MS/MS. White blood cell (WBC) counts and differential WBC counts were analyzed using a ProCyte Dx Hematology Analyzer (IDEXX Laboratories) in 4 h after blood collection.

OVA-sIgE = assay: Measurement of OVA-sIgE in plasma (ELISA); assay type: in vivo, mice; conditions: vs OVA group
Protocol: as §1
OVA-sIgE in plasma was measured using an enzyme-linked immunosorbent assay (ELISA) kit following the manufacturer's specification.

NF-κB and MARK pathways = assay: NF-κB and MARK pathways, cytokines and ROS in LPS sepsis
Excerpt: LPS interacts with pathogen recognition receptors such as TLRs would also activate NF-κB and MARK pathways, which would further lead to an over-production of cytokines. […] The “cytokine storm” in sepsis involves in excessive release of INFs, IL-1B, IL-2,4,6,10,12, TNFa and MCP etc.
In sepsis, there are also over productions of chemokines such as ROS. […] This invention disclosed the similar effects of other RS-racemic, S-enantiomer or R-enantiomer beta2 agonists including: salbutamol, bambuterol, vilanterol, clenterol, salmeterol, formoterol, trantinterol and Indacaterol and other β2 agonists.

[4] = system: OVA-sensitized/OVA-challenged mice; assay: Airway responsiveness to methacholine by whole-body plethysmography (Penh) in OVA sensitized/challenged asthma model; assay type: in vivo; conditions: for airway bronchoconstriction/hyperactivity (Penh) in response to increased doses of Mch: Mch 2, 10, 20 mg/mL aerosol, rac-ter at double dose of R-ter
Protocol: as §1
In vivo airway responsiveness to methacholine (Mch) was assessed on day 28 in conscious, freely moving, spontaneously breathing mice by a whole-body plethysmography (Buxco Electronics Inc.). Mice were challenged with aerosolized saline or increasing concentrations of Mch (2, 10, 20 mg/mL) administered by an ultrasonic nebulizer for 2 min. Before Mch challenge, a 20 μL drug aerosol or saline was given to the mice because of the short-acting bronchodilating effect of terbutaline. The degree of bronchoconstriction was expressed as enhanced pause (Penh), a calculated dimensionless value that correlates with measurement of airway resistance, impedance, and intrapleural pressure. Penh values were recorded and averaged for 4 min after each nebulization challenge.

NF-κB = assay: mRNA of NF-κB in the lung by quantitative real-time PCR; assay type: in vivo, mice; conditions: vs OVA group
Protocol: as §1
The level of mRNA of NF-κB in the lung were analyzed by quantitative real-time PCR analysis. The total RNA was extracted from lung tissue using RNaEX™ Total RNA Isolation Kit (Generay Biotech). The quality and quantity of RNA samples were assessed by NanoDrop ND-2000c spectrophotometer (Thermo Fisher Scientific, Inc., Wilmington, Del.). Total RNA (1 μg) was reverse transcribed into cDNA using cDNA Reverse Transcription Kit (Vazyme Biotech, Nanjing, China) according to the manufacturer's instruction. Real-time PCR reactions were performed using the 7500 real-time-PCR system (Applied Biosystems, Foster City, Calif., USA) with AceQ qPCR SYBR Green Master Mix (Vazyme Biotech, Nanjing, China). […]

BALB/c mice = assay: Survival study after LPS challenge (sepsis); assay type: in vivo
Protocol: Treatment were given intraperitoneally for 3 consecutive days. One hour after the 3rd day treatments, LPS (15 mg/kg) was administered intraperitoneally. The animals were monitored. Survival rate was then recorded every 12 h for 144 hours.

[5] = 0.5 mg/kg + LPS, Saline + LPS 90.9

Row | Structure (SMILES) | PAS stain of lung tissues: inflammatory and histopathological changes, collagen deposition [1] | wall thickness of vessels / inflammatory remodeling processes [1] | PAS and Masson staining: subepithelial matrix glycoproteins, goblet cell hyperplasia, collagen deposition [1] | smooth muscle hypertrophy, thickness of bronchial and vascular smooth muscle layer [1] | p38 MAPK phosphorylation (ratio of phosphorylated to total p38 MAPK) (p38 MAPK) | ratio of phosphorylated to total p65 NF-κB (NF-κB p65) | cytokines released (FIG. 3) [2] | per cent of eosinophil counts in blood and BALF [3] | OVA-sIgE level in plasma (OVA-sIgE) | NF-κB and MARK pathways activated by LPS (expression or phosphorylation) (NF-κB and MARK pathways; LPS sepsis) | airway bronchoconstriction/hyperactivity (Penh) in response to increased doses of Mch [4] | NF-κB expression (mRNA transcript) in lung (NF-κB) | other results
1 | CC(C)(C)NC[C@@H](O)c1cc(O)cc(O)c1 [S-terbutaline] | further enhanced; also recorded: further worsened | further increase of wall thickness of vessels | further exacerbated | further enhanced | enhanced | enhanced | did the opposite | significantly increased; also recorded: significantly higher; also recorded: the highest | further increase | further enhanced | further exacerbation of airway hyperactivity | further enhanced | p38 MAPK phosphorylation (ratio of phosphorylated to total p38 MAPK) (p38 MAPK; listed as S-ter): further increased; IL-4 release in BALF [2]: further increase; IL-13 release in BALF [2]: further increase; IL-4 release in BALF ([2]; listed as S-ter): further increased; IL-13 release in BALF ([2]; listed as S-ter): further increased; lung compliance ([4]; OVA induced asthma mice, baseline): reduced lung compliances
2 | CC(C)(C)NC[C@H](O)c1cc(O)cc(O)c1 [R-terbutaline] | significantly ameliorate; also recorded: significantly alleviated or improved | significantly diminished | reversed and recovered toward normal | suppressed | decreased | decreased | significantly inhibited the release | significantly reduced | markedly inhibited | significantly inhibited | attenuated significantly | effectively inhibited | Percent of death after LPS challenges, 12 h (BALB/c mice; 0.5 mg/kg + LPS, Saline + LPS 0): 0%; Percent of death after LPS challenges, 24 h (BALB/c mice; 0.5 mg/kg + LPS, Saline + LPS 36.4): 18.2%; Percent of death after LPS challenges, 36 h (BALB/c mice; 0.5 mg/kg + LPS, Saline + LPS 72.7): 27.3%; Percent of death after LPS challenges, 48 h (BALB/c mice; [5]): 36.4%; Percent of death after LPS challenges, 72 h (BALB/c mice; [5]): 36.4%; Percent of death after LPS challenges, 144 h (BALB/c mice; [5]): 36.4%; rate of mortality/death after LPS challenge (in words) (BALB/c mice; in comparison of LPS challenged group without pretreatment (mortality 90.9%)): greatly reduced or even diminished; degree of inflammatory cell infiltration (H&E, histological score) ([1]; rac-terbutaline at double dose): ameliorated; p38 MAPK phosphorylation (ratio of phosphorylated to total p38 MAPK) (p38 MAPK; listed as R-ter): markedly suppressed; IL-5 in BALF [2]: significantly inhibited; IL-5 in BALF ([2]; listed as R-ter): significantly reduced; influx of eosinophils into BALF ([3]; OVA asthma mice): significantly inhibited; over production of inducible NO (iNO) and another ROS (NF-κB and MARK pathways; LPS sepsis): significantly prevent and inhibit; production or release of cytokines (cytokine storm) (NF-κB and MARK pathways; sepsis): significantly reduced; baseline Penh value (baseline airway reactivity) ([4]; exposure to saline, after 7 days inhalation pretreatment, OVA group 0.80±0.12, Control group 0.55±0.08, rac-terbutaline at double molar amount): significantly reduce
